Laboratory results: the supplement of paper PMC10307832

Legend:
Assay in all cases: relative viability (nuclei count vs DMSO), 5 days (fraction); higher = more cells survive
[1] = compound: N#CC[C@H](C1CCCC1)n1cc(-c2ncnc3[nH]ccc23)cn1 [Ruxolitinib] + Cc1nc(NC(=O)N2CCC[C@H]2C(N)=O)sc1-c1ccnc(C(C)(C)C(F)(F)F)c1 [Alpelisib] (partner 2 µM)
Summary of the method: (§1)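 Relative viability equals treated-well nuclei counts divided by vehicle-well nuclei counts. Counts came from 4× images of lung cancer cell lines grown in 1536-well plates for 5 days after pin-tool dosing on the day after seeding. Dosing used one drug alone or a fixed anchor-drug dose plus five library-drug doses (not always all listed) in √10 steps, and values are medians of duplicate plates.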

[2] = compound: N#CC[C@H](C1CCCC1)n1cc(-c2ncnc3[nH]ccc23)cn1 [Ruxolitinib] + COc1cccc2cc(-c3nc([C@H]4CC[C@H](C(=O)O)CC4)n4ncnc(N)c34)[nH]c12 [OSI-027] (partner 0.5 µM)
Summary of the method: as §1

[3] = compound: N#CC[C@H](C1CCCC1)n1cc(-c2ncnc3[nH]ccc23)cn1 [Ruxolitinib] + C[C@@H](Oc1cc(-c2cnn(C3CCNCC3)c2)cnc1N)c1c(Cl)ccc(F)c1Cl [Crizotinib] (partner 1 µM)
Summary of the method: as §1

[4] = compound: N#CC[C@H](C1CCCC1)n1cc(-c2ncnc3[nH]ccc23)cn1 [Ruxolitinib] + COc1cc2c(Oc3ccc(NC(=O)C4(C(=O)Nc5ccc(F)cc5)CC4)cc3F)ccnc2cc1OCCCN1CCOCC1 [Foretinib] (partner 0.25 µM)
Summary of the method: as §1

Cell Line | relative viability ([1]; first compound 0.253 µM) | relative viability ([1]; first compound 0.8 µM) | relative viability ([1]; first compound 2.53 µM) | relative viability ([1]; first compound 8 µM) | relative viability ([2]; first compound 0.08 µM) | relative viability ([2]; first compound 0.253 µM) | relative viability ([2]; first compound 0.8 µM) | relative viability ([2]; first compound 2.53 µM) | relative viability ([2]; first compound 8 µM) | relative viability ([3]; first compound 0.253 µM) | relative viability ([3]; first compound 0.8 µM) | relative viability ([3]; first compound 2.53 µM) | relative viability ([3]; first compound 8 µM) | relative viability ([4]; first compound 0.08 µM) | relative viability ([4]; first compound 0.253 µM) | relative viability ([4]; first compound 0.8 µM) | relative viability ([4]; first compound 2.53 µM) | relative viability ([4]; first compound 8 µM) | relative viability ([1]; first compound 0.08 µM) | relative viability ([3]; first compound 0.08 µM)
HOP-62 | 0.813 | 1.05 | 0.96 | 0.723 | 0.874 | 0.724 | 0.91 | 0.825 | 0.824 | 1.05 | 0.707 | 1.01 | 0.749 | 1.16 | 1.07 | 1.16 | 1.11 | 1.09 |  | 
LC-2-ad | 0.848 | 0.934 | 0.734 | 0.567 |  | 0.667 | 0.859 | 0.733 | 0.524 | 0.485 | 0.49 | 0.474 | 0.465 |  | 0.743 | 0.977 | 0.746 | 0.64 | 0.895 | 
LCLC-97TM1 | 0.204 | 0.275 | 0.235 | 0.327 | 0.502 | 0.3 | 0.362 | 0.488 | 0.563 | 0.393 | 0.487 | 0.472 | 0.275 | 0.848 | 0.753 | 0.826 | 0.834 | 0.889 | 0.215 | 0.361
LCLC-103H | 0.875 | 1.08 | 1.03 | 1.02 | 0.497 | 0.394 | 0.48 | 0.45 | 0.488 | 1.15 | 1.2 | 1.09 | 0.988 | 0.808 | 0.672 | 0.881 | 0.71 | 0.661 | 1.02 | 1.04
LK-2 | 0.992 | 1.27 | 0.971 | 1.43 | 0.222 | 0.187 | 0.18 | 0.182 | 0.214 | 0.224 | 0.243 | 0.283 | 0.239 | 1.15 | 1.45 | 1.46 | 1.29 | 1.34 |  | 
LOU-NH91 | 0.674 | 0.796 | 0.736 | 0.694 |  | 0.733 | 0.729 | 0.746 | 0.686 | 0.723 | 0.788 | 0.707 | 0.704 |  | 0.968 | 1.02 | 0.877 | 0.876 | 0.569 | 0.626
LU99A | 0.456 | 0.523 | 0.523 | 0.412 | 0.339 | 0.305 | 0.298 | 0.295 | 0.268 | 0.655 | 0.532 | 0.612 | 0.519 | 0.882 | 0.858 | 0.787 | 0.69 | 0.641 | 0.532 | 0.588
LXF-289 | 1 | 1.04 | 0.948 | 0.815 | 0.776 | 0.79 | 0.789 | 0.698 | 0.624 | 0.805 | 0.781 | 0.757 | 0.737 | 0.902 | 0.957 | 0.97 | 0.91 | 0.871 | 1.01 | 0.777
NCI-H23 | 0.726 | 0.801 | 0.72 | 0.535 | 0.743 | 0.617 | 0.696 | 0.496 | 0.522 | 0.527 | 0.71 | 0.43 | 0.488 | 1.07 | 0.969 | 1 | 0.813 | 0.709 | 0.611 | 0.457
